This test has as its target T1, human ANO6 (Homo sapiens, UniProt Q4KMQ2).
T1 construct: expressed in transfected cells
T1 sequence (Q4KMQ2 1-931 isoform Q4KMQ2-2): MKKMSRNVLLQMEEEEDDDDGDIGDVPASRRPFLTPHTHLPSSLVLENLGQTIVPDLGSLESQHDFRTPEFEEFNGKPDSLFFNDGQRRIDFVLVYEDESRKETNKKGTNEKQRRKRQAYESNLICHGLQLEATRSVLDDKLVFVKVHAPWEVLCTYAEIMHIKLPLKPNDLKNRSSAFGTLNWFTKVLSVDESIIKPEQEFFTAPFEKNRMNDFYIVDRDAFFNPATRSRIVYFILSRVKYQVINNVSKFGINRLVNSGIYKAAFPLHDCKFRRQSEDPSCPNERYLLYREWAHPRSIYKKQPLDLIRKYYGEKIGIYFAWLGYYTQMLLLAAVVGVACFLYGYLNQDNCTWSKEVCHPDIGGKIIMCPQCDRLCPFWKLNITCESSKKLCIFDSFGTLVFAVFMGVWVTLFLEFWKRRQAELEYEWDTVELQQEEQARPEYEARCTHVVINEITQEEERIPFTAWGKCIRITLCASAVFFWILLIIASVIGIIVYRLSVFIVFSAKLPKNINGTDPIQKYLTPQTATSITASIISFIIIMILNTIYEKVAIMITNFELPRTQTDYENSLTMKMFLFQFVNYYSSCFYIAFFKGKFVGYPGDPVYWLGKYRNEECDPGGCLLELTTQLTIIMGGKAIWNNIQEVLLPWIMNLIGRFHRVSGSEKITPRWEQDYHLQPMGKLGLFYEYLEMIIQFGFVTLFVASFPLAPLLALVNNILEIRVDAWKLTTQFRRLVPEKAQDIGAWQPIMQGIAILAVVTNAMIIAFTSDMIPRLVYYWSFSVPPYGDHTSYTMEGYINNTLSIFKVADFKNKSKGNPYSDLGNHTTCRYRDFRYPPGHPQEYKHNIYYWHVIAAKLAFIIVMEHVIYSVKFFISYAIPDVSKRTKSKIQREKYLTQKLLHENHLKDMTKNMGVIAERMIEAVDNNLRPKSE
The experiment in a line: YFP quenching assay (ANO6 ion channel activity). Type of test: cell-based. To be noted: 10 μM ionomycin; for inhibition at 1 µM: test compound 1 μM, read-out: Inhibition Level 1 μM; for inhibition at 30 µM: test compound 30 μM, read-out: Inhibition Level 30 μM. The text has this: Example 3: YFP Quenching Assay
1. Materials and Instruments
Ionomycin (Alomonelab cat. #I-700), FLUOstar Omega microplate reader (BMG Labtech, Ortenberg, Germany), and MARS Data Analysis Software (BMG Labtech)
Fisher rat thyroid (FRT) cells stably expressing human ANO6 (GenBank accession no. NP_001191732.1, provided by J. H. Nam, Dongguk University College of Medicine, Korea) and halide sensor mutant YFP-H148Q/I152L/F46L) were constructed and grown in Dulbecco's modified Eagle's medium Nutrient Mixture F-12 (DMEM/F-12) supplemented 10% FBS, 100 units/mL penicillin, 500 μg/mL hygromycin B and 100 μg/mL neomycin.
Fisher rat thyroid (FRT) cells stably expressing human ANO6 and halide sensor mutant YFP (H148Q/I152L/F46L) were seeded in black walled 96 well plates and incubated in a 37° C., 5% CO2 incubator to reach about 100% cell confluency. Then, each well of the 96 well plates were washed for several times with phosphate buffered saline (PBS), and 50 μL of PBS was added to each well. Test compounds (100× in DMSO) were added to each well to be 1% v/v DMSO. After incubation for 10 minutes in 40° C., the 96 well plates were transferred to a plate reader, and YFP fluorescence changed by SCN-introduced into cells through activated ANO6 were measured by the following steps.
(1) YFP fluorescence signals were recorded in every 0.4 seconds.
(2) Basal YFP fluorescence signals were recorded for 1 second.
(3) 140 mM SCN-(50 μL) containing 10 μM ionomycin was injected to each well, and YFP fluorescence signals were recorded.
The inhibitory activity (%) of each of the test compounds was obtained by the following steps.
(1) Background signals were subtracted from recording values, and the resulting values were converted to relative percentages. The values at 0 second were set to be 100%.
(2) Differences between the values at 3.6 seconds and those of at 7.6 seconds were calculated.
(3) In each row of 96 well plate, the inhibitory activity of each of the test compounds was calculated as percentages. The inhibitory activity of a negative control group to which neither compounds nor ionomycin were treated was set to be 100%, and the inhibitory activity of a positive control group to which ionomycin was treated and compounds were not treated was set to be 0%.
(4) The assay was performed in duplicate or triplicate, and the results were averaged.

One may read the inhibition as the percentage by which the read-out fell short of the control.

Some results are limits rather than exact numbers.

As to `Cc1ccc(CNC(=O)c2cccc(Nc3ccc(C#N)nn3)c2)o1` [Compound 107, 3-[(6-cyanopyridazin-3-yl)amino]-N-[(5-methylfuran-2-yl)methyl]benzamide], the inhibition at 1 µM is below 30%.
On the same count and under the same terms, the same measure for `Cc1ccc(CNC(=O)c2cccc(Nc3ccc(C4CCOC4)nn3)c2)o1` (stereo not shown) [Compound 87, N-[(5-methylfuran-2-yl)methyl]-3-{[6-(oxolan-3-yl)pyridazin-3-yl]amino}benzamide]: below 30%; for `Cc1ccc(CNC(=O)c2cccc(Nc3ncc(-c4cccc(C(F)(F)F)c4)cn3)c2)o1` [Compound 99, N-[(5-methylfuran-2-yl)methyl]-3-({5-[3-(trifluoromethyl)phenyl]pyrimidin-2-yl}amino)benzamide]: 30 to 60%.
As to `Cc1ccc(CNC(=O)c2ccc(Nc3ccc(-c4ccccc4)nn3)cc2)o1` [Compound 22, N-[(5-methylfuran-2-yl)methyl]-4-[(6-phenylpyridazin-3-yl)amino]benzamide], the inhibition at 30 µM was below 30%.
`COc1ccc(CCNC(=O)c2cccc(Nc3ncc(-c4ccccc4)cn3)c2)cc1` [Compound 83, N-[2-(4-methoxyphenyl)ethyl]-3-[(5-phenylpyrimidin-2-yl)amino]benzamide]: the inhibition at 1 µM was 30 to 60%.
Still for that read-out and setting: in the case of `Cc1ccc(CNC(=O)c2cccc(Nc3cccc(-c4ccccc4)c3)c2)o1` [Compound 88, 3-({[1,1′-biphenyl]-3-yl}amino)-N-[(5-methylfuran-2-yl)methyl]benzamide] it was below 30%; in that of `CN(CCNC(=O)c1cccc(Nc2ccc(-c3ccccc3)nn2)c1)Cc1ccccc1` [Compound 124], 30 to 60%; in that of `CCc1ccc(Nc2cccc(C(=O)NCc3ccc(C)o3)c2)nn1` [Compound 84, 3-[(6-ethylpyridazin-3-yl)amino]-N-[(5-methylfuran-2-yl)methyl]benzamide], below 30%.
`Cc1ccc(-c2ccc(Nc3cccc(C(=O)NCc4ccc(Cl)cc4)c3)nn2)cc1` [Compound A28]: the inhibition at 30 µM lay within 30 to 60%.
As for `Cc1ccc(CNC(=O)c2cccc(Nc3ccc(CCc4ccc(F)cc4)nn3)c2)o1` [Compound 77, 3-({6-[2-(4-fluorophenyl)ethyl]pyridazin-3-yl}amino)-N-[(5-methylfuran-2-yl)methyl]benzamide], the inhibition at 1 µM was below 30%.
With `Cc1cccc(-c2cnc(Nc3cccc(C(=O)NCc4ccc(C)o4)c3)nc2)c1` [Compound A18], the inhibition at 1 µM lay in the range of 30 to 60% and the inhibition at 30 µM is 30 to 60%.
On to `Cc1ccc(CNC(=O)c2cccc(Nc3ccc(C(C)C)nn3)c2)o1` [Compound 85, N-[(5-methylfuran-2-yl)methyl]-3-{[6-(propan-2-yl)pyridazin-3-yl]amino}benzamide], for which the inhibition at 1 µM lay within 30 to 60%.
Regarding `O=C(NC1COC1)c1cccc(Nc2ccc(-c3ccccc3)nn2)c1` [Compound 26, N-(oxetan-3-yl)-3-[(6-phenylpyridazin-3-yl)amino]benzamide], the inhibition at 1 µM is 30 to 60% and the inhibition at 30 µM was at least 60%.
For `Cc1ccc(CNC(=O)c2cccc(Nc3ncc(-c4cnc5ccccc5c4)cn3)c2)o1` [Compound 104, N-[(5-methylfuran-2-yl)methyl]-3-{[5-(quinolin-3-yl)pyrimidin-2-yl]amino}benzamide], the inhibition at 1 µM is below 30%.
Regarding `O=C(NCCc1ccccc1)c1cccc(Nc2ncc(-c3cccc(F)c3)cn2)c1` [Compound A88], the inhibition at 1 µM was 30 to 60%.
In the case of `COc1ccc(CNC(=O)c2cccc(Nc3ccc(-c4ccccc4)nn3)c2)c(OC)c1` [Compound A61], the inhibition at 1 µM lay within 30 to 60% and the inhibition at 30 µM was at least 60%.
Take `COc1ccc(-c2ccc(Nc3cccc(C(=O)NCc4ccc(C)o4)c3)nn2)cc1` [Compound 13, 3-{[6-(4-methoxyphenyl)pyridazin-3-yl]amino}-N-[(5-methylfuran-2-yl)methyl]benzamide]: the inhibition at 1 µM was below 30% and the inhibition at 30 µM was at least 60%.
Regarding `Cc1ccc(-c2ccc(Nc3cccc(C(=O)NCC(C)C)c3)nn2)cc1` [Compound A33], the inhibition at 1 µM was 30 to 60% and the inhibition at 30 µM is at least 60%.
On the same counts, the results for `O=C(NCCCN1CCCC1)c1cccc(Nc2ccc(-c3ccccc3)nn2)c1` [Compound 21, 3-[(6-phenylpyridazin-3-yl)amino]-N-[3-(pyrrolidin-1-yl)propyl]benzamide] are below 30% and below 30%.
On to `O=C(NCCc1ccccc1)c1cnc(Nc2ccc(-c3ccccc3)nn2)s1` [Compound 113, N-(2-phenylethyl)-2-[(6-phenylpyridazin-3-yl)amino]-1,3-thiazole-5-carboxamide], for which the inhibition at 1 µM was below 30%.
As to `CCOC(=O)c1ccc(-c2cnc(Nc3cccc(C(=O)NCc4ccc(C)o4)c3)nc2)cc1` [Compound 102, ethyl 4-{2-[(3-{[(5-methylfuran-2-yl)methyl]carbamoyl}phenyl)amino]pyrimidin-5-yl}benzoate], the inhibition at 1 µM was below 30%.
Turning to `Cc1ccc(-c2ccc(Nc3cccc(C(=O)NCc4ccc(C)o4)c3)nn2)cc1` [Compound A7], the inhibition at 1 µM was below 30% and the inhibition at 30 µM is at least 60%.
With `Cc1ccc(CNC(=O)c2cccc(Nc3ccc(-c4cccc(F)c4)nn3)c2)cc1` [Compound A25], the inhibition at 1 µM lay within 30 to 60% and the inhibition at 30 µM is at least 60%.
On the same counts, the results for `CCN(CCCNC(=O)c1cccc(Nc2ccc(-c3ccccc3)nn2)c1)Cc1ccccc1` [Compound A42] are 30 to 60% and at least 60%.
On the same counts, the results for `Cc1ccc(CNC(=O)c2cccc(Nc3ccc(-c4ccncc4)nn3)c2)o1` [Compound 9, N-[(5-methylfuran-2-yl)methyl]-3-{[6-(pyridin-4-yl)pyridazin-3-yl]amino}benzamide] are below 30% and at least 60%.
For the compound `Cc1ccc(CNC(=O)c2cccc(Nc3ncc(-c4cccc(C(=O)O)c4)cn3)c2)o1` [Compound 108, 3-{2-[(3-{[(5-methylfuran-2-yl)methyl]carbamoyl}phenyl)amino]pyrimidin-5-yl}benzoic acid], the inhibition at 1 µM is below 30%.
The same measure, in the same setting: in the case of `O=C(NC1CCCc2ccccc21)c1cccc(Nc2ncc(-c3cccc(F)c3)cn2)c1` (stereo not shown) [Compound A82] it was 30 to 60%.
`O=C(NCCc1ccncc1)c1cccc(Nc2ccc(-c3ccccc3)nn2)c1` [Compound 27, 3-[(6-phenylpyridazin-3-yl)amino]-N-[2-(pyridin-4-yl)ethyl]benzamide]: the inhibition at 1 µM was in the range of 30 to 60% and the inhibition at 30 µM is at least 60%.
Turning to `Cc1ccc(CNC(=O)c2cccc(Nc3ccc(C4CCCC4)nn3)c2)o1` [Compound 62, 3-[(6-cyclopentylpyridazin-3-yl)amino]-N-[(5-methylfuran-2-yl)methyl]benzamide], the inhibition at 1 µM was below 30%.
Consider `Cc1ccc(CNC(=O)c2cccc(Nc3ncc(-c4ccc(F)cc4)cn3)c2)o1` [Compound A19], for which the inhibition at 30 µM lay in the range of 30 to 60%.
As to `Cc1ccc(CNC(=O)c2cccc(Nc3ncc(-c4cccc(F)c4)cn3)c2)o1` [Compound A20], the inhibition at 1 µM is below 30% and the inhibition at 30 µM lay in the range of 30 to 60%.

The values are drawn from patent US20230080054A1 (ILDONG PHARMACEUTICAL CO., LTD., priority 2021, published 2023).
